From publication PMC6272137, “Synthesis and Evaluation of Paeonol Derivatives as Potential Multifunctional Agents for the Treatment of Alzheimer’s Disease” (Molecules, 2015)
Like-named read-outs stand apart in the source and are kept apart here.

Key:
PC12 cells = experiment: Protection of PC12 cells against H2O2-induced cell death (MTT assay); settings: then 150 μM H2O2 for 5 h; for cell morphology (phase-contrast microscopy): 40 µM compound, 3 h preincubation
[1] = DPPH free radical scavenging assay; settings: read-out: DPPH Scavenging (IC50), concentration causing 50% loss of initial DPPH free radical, mean ± SD, n = 3, 60 min, methanol
Protocol: Based on their interaction with DPPH (2,2-diphenyl-1-picrylhydrazyl) free radical, antioxidant activities of the new paeonol derivatives were screened. […] Paeonol is used as the positive control.
The stable radical DPPH was used as a reagent in this spectrophotometric assay. […] After a 60 min incubation period at room temperature in the dark, the absorbance was read at 517 nm against the corresponding blank. Inhibition of free radical DPPH in percent (I%) was calculated using the following Equation (1): (1) I%=(Ablank−Asample/Ablank)×100 Where Ablank is the absorbance of DPPH solution (control solution) against the blank, and Asample is the absorbance of the tested compound against the blank. Concentrations caused 50% loss of the initial DPPH free radical scavenging.

AChE from electric eel = target: T1, AChE from electric eel (Electrophorus electricus, UniProt O42275); experiment: biochemical; settings: n = 3, pH 8.0, 37 °C, read-out: AChE Inhibition (IC50)
T1 construct: purchased Sigma Aldrich
T1 sequence (O42275 24-633): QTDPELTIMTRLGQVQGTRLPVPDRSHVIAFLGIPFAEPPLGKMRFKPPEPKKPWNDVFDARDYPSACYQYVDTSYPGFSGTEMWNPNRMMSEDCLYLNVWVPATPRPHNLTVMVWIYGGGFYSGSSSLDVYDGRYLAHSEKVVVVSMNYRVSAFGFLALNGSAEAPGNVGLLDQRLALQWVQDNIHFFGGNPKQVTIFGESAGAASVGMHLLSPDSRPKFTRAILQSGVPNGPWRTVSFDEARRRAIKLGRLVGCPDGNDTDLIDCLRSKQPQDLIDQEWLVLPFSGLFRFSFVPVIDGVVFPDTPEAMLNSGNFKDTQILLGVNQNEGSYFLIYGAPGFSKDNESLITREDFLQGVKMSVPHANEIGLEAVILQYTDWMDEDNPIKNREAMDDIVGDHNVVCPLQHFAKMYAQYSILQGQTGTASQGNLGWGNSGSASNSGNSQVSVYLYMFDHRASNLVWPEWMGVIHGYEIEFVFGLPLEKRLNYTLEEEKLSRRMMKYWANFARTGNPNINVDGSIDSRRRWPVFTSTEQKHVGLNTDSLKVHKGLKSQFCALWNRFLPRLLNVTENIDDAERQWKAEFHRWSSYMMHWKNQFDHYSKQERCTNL
Protocol: Acetylcholinesterase (AChE, E.C.3.1.1.7, from the electric eel), 5,5'-dithiobis-(2-nitrobenzoic acid) (DTNB), acetylthiocholine iodide (ATCI) and donepezil hydrochloride were purchased from Sigma Aldrich. […] Paeonol and 5a–5d were dissolved in DMSO and then diluted by phosphate buffer (pH 8.0) to seven different concentrations in the range of 10^−3–10^−9 M. AChE solutions were prepared in double-distilled water to 2.0 units/mL in 2 mL aliquots. The assay medium contained phosphate buffer, pH 8.0 (1 mL), 50 µL of 0.01 M DTNB, 10 µL of enzyme and 50 µL of acetylthiocholine iodide. Test compounds were added to assay solution and preincubated at 37 °C with enzyme for 15 min, followed by the addition of substrate. Activity was determined by measuring the increase in absorbance at 412 nm at 1 min intervals at 37 ± 0.2 °C. For determining the blank value, 50 µL buffer replaced the AChE solution.

Compound | protective effect on PC12 cells (MTT) (PC12 cells; 5 μM compound, 3 h pretreatment) | cell morphology (phase-contrast microscopy) (PC12 cells) | protective effect (cell viability, MTT) (PC12 cells; 40 μM compound, 3 h pretreatment, control cells = 100%) | IC50 [1] | IC50 ([1]; listed as paeonol) | IC50 (AChE from electric eel)
COc1ccc(C(C)=O)c(O)c1 [Paeonol, 2-hydroxy-4-methoxy-acetophenone] | did not cause any apparent effects | maintained normal cell morphology | 58.9% | 310 ± 5.41 µM | 310 µM | 
COc1ccc(C(=O)CN2CCN(Cc3ccc(Cl)cc3)CC2)c(O)c1 [5d, 2-(4-(4-Chlorobenzyl)piperazin-1-yl)-1-(2-hydroxy-4-methoxypheny) ethanone] |  |  |  | 187 ± 13.7 µM |  | 2630 ± 153 nM
COc1ccc(C(=O)CN2CCN(Cc3ccc(C)cc3)CC2)c(O)c1 [5b, 1-(2-Hydroxy-4-methoxyphenyl)-2-(4-(4-methylbenzyl)piperazin-1-yl) ethanone] |  | maintained normal cell morphology |  | 158 ± 6.88 µM |  | 610 ± 9 nM
COc1ccc(C(=O)CN2CCN(Cc3ccccc3)CC2)c(O)c1 [5a, 2-(4-Benzylpiperazin-1-yl)-1-(2-hydroxy-4-methoxyphenyl) ethanone] |  |  |  | 143 ± 8.83 µM |  | 1590 ± 11 nM
COc1ccc(C(=O)CN2CCN(Cc3ccc([N+](=O)[O-])cc3)CC2)c(O)c1 [5c, 1-(2-Hydroxy-4-methoxyphenyl)-2-(4-(4-nitrobenzyl)piperazin-1-yl) ethanone] |  |  |  | 192 ± 8.06 µM |  | 7040 ± 32 nM
